The values that follow are results of earlier work, collected in US20180169018A1, “Method for improving the dissolution profile of a biologically active material” (iCeutica Pty Ltd., priority 2009, published 2018).

In general, Tmax refers to the time at which the peak concentration occurs.

The conditions of this series: absorption by the body.

For the compound `Cc1cnc(NC(=O)C2=C(O)c3ccccc3S(=O)(=O)N2C)s1` [Meloxicam, meloxicam], the Tmax was 4 to 5 h.
